{"source": "patent US20240182525A1", "about": "“NOVEL BICYCLIC COMPOUND, OPTICAL ISOMER THEREOF OR PHARMACEUTICALLY ACCEPTABLE SALT THEREOF, USE THEREOF, AND PREPARATION METHOD THEREFOR” (KOREARESEARCH INSTITUTE OF BIOSCIENCE AND BIOTECHNOLOGY, priority 2021, published 2024)", "key": {"[1]": {"experiment": "Cytotoxicity assay, 3T3-L1", "assay_type": "cell-based", "conditions": "mouse, 3T3-L1 cells (preadipocytes); 3T3-L1, 48 hours, maximum concentration 100 μM", "experimental": "(§1) To measure the cytotoxicity of the compound represented by Chemical Formula 1 (Chemical Formula 1-1), toxicity was measured in mouse preadipocyte 3T3-L1 cell line, human malignant melanoma A375 cell line, mouse malignant melanoma B16F10 cell line, human oral cancer MDA-MB-435 cell line, mouse breast cancer 4T1 cell line, human breast cancer MCF7 cell line, human brain cancer U87MG cell line, human glioblastoma U373MG cell line, human cervical cancer HeLa cell line, mouse embryonic fibroblast (MEF) cell line, human embryonic kidney HEK293T cell line (Korea Cell Line Bank). First, 1×10^4 cells were divided into 200 μl each in a 96-well plate using Dulbecco's Modified Eagle's Medium (DMEM) supplemented with 10% fetal bovine serum (FBS), […] streptomycin, and 50 U/ml penicillin, while maintaining various cells at 37r in an atmosphere of 5% CO2. The cells were treated with the compound of Chemical Formula 1-1 of the present invention at a maximum concentration of 100 μM and cultured for 48 hours under the same culture conditions. After the incubation, the culture media were removed and the cytotoxicity test results were confirmed (Table 2 and FIG. 3 below)."}, "[2]": {"experiment": "Cytotoxicity assay, HEK293T", "assay_type": "cell-based", "conditions": "human, HEK293T cells (embryonic kidney), maximum concentration 100 μM", "experimental": "as §1"}, "[3]": {"system": "adipocyte differentiation-associated proteins in the 3T3-L1 cell line", "experiment": "Western blotting of adipocyte differentiation-associated proteins", "assay_type": "cell-based, mouse", "conditions": "7.5 μM, FIG. 10", "experimental": "Additionally, in order to verify the adipogenesis inhibitory ability of the Chemical Formula 1 according to the present invention, the level of adipocyte differentiation-associated proteins in the 3T3-L1 cell line was measured. The 3T3-L1 cells were cultured in a 6-well plate (2×10^5 cell/well), and the next day, the cells were replaced with normal culture media (Undifferentiated media; UND) and differentiation induction media (Differentiation media; DM), respectively, followed by treatment with the compound of Chemical Formula 1-1 at 7.5 μM for 48 hours, and then the cells were replaced with new normal culture media (Maintaining media; MM). When replacement with normal culture media, the cells were treated with 7.5 μM of Chemical Formula 1-1, and cultured for 72 hours more, followed by Western blotting."}, "[4]": {"system": "MC3T3-E1 cell line", "experiment": "Cytotoxicity assay in MC3T3-E1 pre-osteoblasts", "assay_type": "cell-based, mouse", "conditions": "concentration range of 50 μM or less, 7 days, FIG. 14", "experimental": "In order to measure the cytotoxicity of the compound represented by Chemical Formula 1 (Chemical Formula 1-1), toxicity was measured in the MC3T3-E1 cell line (Korea Cell Line Bank), which is a pre-osteoblast related to bone formation.\nSpecifically, a cytotoxicity test was performed to determine the in vivo safety of Chemical Formula 1-1 above. MC3T3-E1 cells, which are mouse osteoblasts, were inoculated into a 96-well plate at a concentration of 5×10^3 cell/well, and incubated overnight in growth media containing alpha-minimum essential media (alpha-MEM, JBI #008-53) supplemented with 10% fetal bovine serum (FBS, Gibco #16000, USA) and 1× antibiotics (Gibco #15240062, USA). […] After incubation, the media were removed, 90 μl of the media and 10 μl of WTS solution were added, and after 1 hour, the absorbance was measured at 450 nm using a microplate reader."}, "[5]": {"system": "MC3T3-E1 cells", "experiment": "Alkaline phosphatase (ALP) staining of MC3T3-E1 cells", "assay_type": "cell-based, mouse", "conditions": "5, 10, and 20 νM, 7 days, FIG. 15", "text": "In order to analyze the effect of the compound of Chemical Formula 1 according to the present invention on ALP activity, the morphology of MC3T3-E1 cells according to the treatment with the compound of Chemical Formula 1 according to the present invention was confirmed by alkaline phosphatase (ALP) staining of the MC3T3-E1 cell line.\nIn the present Example, the effect of Chemical Formula 1-1 on the activity of alkaline phosphatase (ALP), which is one of the representative markers of osteoblast differentiation, was measured. MC3T3-E1 cells, which are mouse osteoblasts, were inoculated into a 96-well plate at a concentration of 5×10^3 cell/well, and incubated overnight in growth media containing alpha-minimum essential media (alpha-MEM, JBI #008-53) supplemented with 10% fetal bovine serum (FBS, Gibco #16000, USA) and 1× antibiotics (Gibco #15240062, USA). As a negative control, an alpha minimum essential medium containing 10% FBS was used. As positive controls, 100 μg/ml of ALP-activating ascorbic acid and 10 mM of β-glycerophosphate were mixed, and the positive controls were exchanged with media added with 5, 10, and 20 νM of Chemical Formula 1-1 on Day 3, and treated for 7 days. After 7 days, the media were discarded, and the cells were washed with PBS, and fixed with 10% formalin for 1 minute. […]"}, "[6]": {"system": "MC3T3-E1 cells", "experiment": "ALP activity analysis in MC3T3-E1 cell lysate", "assay_type": "cell-based, mouse", "conditions": "5, 10, and 20 νM, 7 days, absorbance 405 nm, FIG. 16", "experimental": "In order to analyze the effect of the compound of Chemical Formula 1 according to the present invention on ALP activity, MC3T3-E1 cells, which are mouse osteoblasts, were inoculated into a 96-well plate at a concentration of 5×10^3 cell/well, and incubated overnight in growth media containing alpha-minimum essential media (alpha-MEM, JBI #008-53) supplemented with 10% fetal bovine serum (FBS, Gibco #16000, USA) and 1× antibiotics (Gibco #15240062, USA). As a negative control, an alpha minimum essential medium containing 10% FBS was used. As a positive control, 100 μg/ml of ALP-activating ascorbic acid and 10 mM of β-glycerophosphate were mixed, and the positive control was exchanged with media added with 5, 10, and 20 νM of Chemical Formula 1-1 (6-J) on Day 3, and treated for 7 days. After 7 days, the media were removed and the cells were washed with PBS, and the cultured MC3T3-E1 cells were lysed with 0.1% TritonX-100 (in PBS) solution and centrifuged to obtain only the supernatant. A predetermined amount of supernatant and ALP were added and reacted for 30 minutes, and then the absorbance was confirmed at 405 nm."}}}
{"smiles": "CC(C)CC1NC(=O)C2CCCN2C(=O)C(C(O)C(C)C)NC(=O)CNC(=O)C(C(C)O)NC(=O)C2NC(=O)C(NC(=O)/C=C/c3ccccc3C(O)C(C)O)C(C)OC(=O)C(CC(N)=O)NC(=O)C(NC(=O)C(O)NC1=O)C(O)c1ccc(O)c(c1)Oc1ccc2cc1", "note": "(stereo not shown) [Chemical Formula 1-1]", "values": [{"measurement": "IC50 at 48 h", "setting": "[1]", "result": "> 100", "unit": "µM"}, {"measurement": "IC50 at 48 h", "setting": "[2]", "result": "> 100", "unit": "µM"}, {"measurement": "level of adipogenesis induction-associated proteins", "setting": "[3]; compound alone, differentiated adipocytes", "result": "lower protein levels"}, {"measurement": "level of adipogenesis induction-associated proteins", "setting": "[3]; simultaneous treatment with Wnt3a-conditional media (2.5%)", "result": "lower protein levels"}, {"measurement": "cytotoxicity", "setting": "[4]", "result": "did not exhibit cytotoxicity"}, {"measurement": "alkaline phosphatase staining (ALP) positive cells", "setting": "[5]", "result": "strongly stained in a concentration-dependent manner"}, {"measurement": "ALP activity", "setting": "[6]", "result": "increased"}]}
